# Laboratory results from US9169254B2, “Spiroimidazolone derivative” (Chugai Seiyaku Kabushiki Kaisha, priority 2009, dated 2015).
# Target: T1, human PTH1 receptor (Homo sapiens, UniProt Q03431)
# T1 sequence (Q03431 27-593): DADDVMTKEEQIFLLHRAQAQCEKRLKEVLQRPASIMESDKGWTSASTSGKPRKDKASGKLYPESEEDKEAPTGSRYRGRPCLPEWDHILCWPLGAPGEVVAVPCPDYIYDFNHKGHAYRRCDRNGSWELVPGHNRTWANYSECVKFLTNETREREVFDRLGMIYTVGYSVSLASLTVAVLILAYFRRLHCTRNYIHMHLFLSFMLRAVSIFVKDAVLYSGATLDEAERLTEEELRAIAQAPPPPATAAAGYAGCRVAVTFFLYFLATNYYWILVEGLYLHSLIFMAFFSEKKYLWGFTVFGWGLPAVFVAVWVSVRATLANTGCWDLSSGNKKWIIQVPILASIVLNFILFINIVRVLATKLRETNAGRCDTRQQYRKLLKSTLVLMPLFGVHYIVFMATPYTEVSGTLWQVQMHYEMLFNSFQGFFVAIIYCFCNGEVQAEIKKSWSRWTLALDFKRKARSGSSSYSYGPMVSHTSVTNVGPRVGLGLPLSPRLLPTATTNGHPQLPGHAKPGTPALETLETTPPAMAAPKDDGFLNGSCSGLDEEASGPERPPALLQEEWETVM
# Test: In vitro cAMP signal activity in HKRK-B7 cells (LLC-PK1 cells overexpressing the human PTH1 receptor)
# Type: cell-based
# Conditions: 0.1 µM
row,SMILES,cAMP production activity (%)
1,"Cc1cc(N(C)C(N)=O)cc(C)c1/C=C/[S@TB3](=O)(=O)N1CCC2(CC1)N=C(c1cccc(C(F)(F)C(F)(F)C(F)(F)C(F)(F)F)c1)NC2=O [Compound 1112, 1-(3,5-dimethyl-4-{(E)-2-[2-(3-nonafluorobutyl-phenyl)-4-oxo-1,3,8-triaza-spiro[4.5]dec-1-ene-8-sulfonyl]-vinyl}-phenyl)-1-methyl-urea]",76

# Same assay, conditions: HKRK-B7 cells; compound at 1×10^−3 M; cAMP produced as percentage of that produced by hPTH(1-34) at 100 nM
row,cAMP production activity (%),SMILES
1,90,"Cc1cc(C(=O)N2CCC(C)(O)CC2)cc(C)c1/C=C/[S@TB4](=O)(=O)N1CCC2(CC1)N=C(c1cccc(CC(F)(F)F)c1)NC2=O [Compound 1097, 8-{(E)-2-[4-(4-hydroxy-4-methyl-piperidine-1-carbonyl)-2,6-dimethyl-phenyl]-ethenesulfonyl}-2-[3-(2,2,2-trifluoro-ethyl)-phenyl]-1,3,8-triaza-spiro[4.5]dec-1-en-4-one]"
2,88,"Cc1cc(C2=NC3(CCN([S@TB17](=O)(=O)/C=C/c4c(C)cc(C(=O)N5CCC(C)(O)CC5)cc4C)CC3)C(=O)N2)ccc1F [Compound 1098, 2-(4-fluoro-3-methyl-phenyl)-8-{(E)-2-[4-(4-hydroxy-4-methyl-piperidine-1-carbonyl)-2,6-dimethyl-phenyl]-ethenesulfonyl}-1,3,8-triaza-spiro[4.5]dec-1-en-4-one]"
3,91,"Cc1cc(C(=O)N2CCC(C)(O)CC2)cc(C)c1/C=C/[S@TB4](=O)(=O)N1CCC2(CC1)N=C(c1ccc(F)c(OC(F)(F)F)c1)NC2=O [Compound 1099, 2-(4-fluoro-3-trifluoromethoxy-phenyl)-8-{(E)-2-[4-(4-hydroxy-4-methyl-piperidine-1-carbonyl)-2,6-dimethyl-phenyl]-ethenesulfonyl}-1,3,8-triaza-spiro[4.5]dec-1-en-4-one]"
4,76,"Cc1cc(C(=O)N2CCC(C)(O)CC2)cc(C)c1/C=C/S(=O)(=O)N1CCC2(CC1)N=C(c1cccc(OC(F)(F)C(F)F)c1)NC2=O [Compound 1100, 8-{(E)-2-[4-(4-Hydroxy-4-methyl-piperidine-1-carbonyl)-2,6-dimethyl-phenyl]-ethenesulfonyl}-2-[3-(1,1,2,2-tetrafluoro-ethoxy)-phenyl]-1,3,8-triaza-spiro[4.5]dec-1-en-4-one]"
5,110,"Cc1cc(C(=O)N2CCC(O)CC2)cc(C)c1CC(F)(F)S(=O)(=O)N1CCC2(CC1)N=C(c1cccc(OC(F)(F)F)c1)NC2=O [Compound 1101, 8-{1,1-Difluoro-2-[4-(4-hydroxy-piperidine-1-carbonyl)-2,6-dimethyl-phenyl]-ethanesulfonyl}-2-(3-trifluoromethoxy-phenyl)-1,3,8-triaza-spiro[4.5]dec-1-en-4-one]"
6,10,"Cc1cc(C(=O)N2CC(O)C2)cc(C)c1/C=C/S(=O)(=O)N1CCC2(CC1)N=C(c1ccc(F)c(OC(F)(F)F)c1)NC2=O [Compound 1102, 2-(4-Fluoro-3-trifluoromethoxy-phenyl)-8-{(E)-2-[4-(3-hydroxy-azetidine-1-carbonyl)-2,6-dimethyl-phenyl]-ethenesulfonyl}-1,3,8-triaza-spiro[4.5]dec-1-en-4-one]"
7,5.4,"Cc1cc(OC[C@H](O)CO)cc(C)c1/C=C/S(=O)(=O)N1CCC2(CC1)N=C(c1cccc(OCCCC(F)(F)C(F)(F)F)c1)NC2=O [Compound 1103, 8-{(E)-2-[4-((R)-2,3-Dihydroxy-propoxy)-2,6-dimethyl-phenyl]-ethenesulfonyl}-2-[3-(4,4,5,5,5-pentafluoro-pentyloxy)-phenyl]-1,3,8-triaza-spiro[4.5]dec-1-en-4-one]"
8,16,"CC1CCC(C2=NC3(CN(S(=O)(=O)CCc4cccc5ccccc45)C3)C(=O)N2)CC1 (centres unmarked) [Compound 1104, 6-(4-Methyl-cyclohexyl)-2-(2-naphthalen-1-yl-ethanesulfonyl)-2,5,7-triaza-spiro[3.4]oct-5-en-8-one]"
9,58,"CNc1cc(C)c(/C=C/[S@TB3](=O)(=O)N2CCC3(CC2)N=C(CCCCCCCCCCCNC(=O)OC(C)(C)C)NC3=O)c(C)c1 [Compound 1106, (11-{8-[(E)-2-(2,6-dimethyl-4-methylamino-phenyl)-ethenesulfonyl]-4-oxo-1,3,8-triaza-spiro[4.5]dec-1-en-2-yl}-undecyl)-carbamic acid tert-butyl ester]"
10,24,"CNc1cc(C)c(/C=C/[S@TB3](=O)(=O)N2CCC3(CC2)N=C(CCCCCCCCCO)NC3=O)c(C)c1 [Compound 1107, 8-[(E)-2-(2,6-dimethyl-4-methylamino-phenyl)-ethenesulfonyl]-2-(9-hydroxy-nonyl)-1,3,8-triaza-spiro[4.5]dec-1-en-4-one]"
11,99,"CCC[C@@H]1CCC[C@H](C2=NC3(CCN(S(=O)(=O)/C=C/c4c(C)cc(N(C)C(N)=O)cc4C)CC3)C(=O)N2)C1 [Compound 1108, 1-(3,5-Dimethyl-4-{(E)-2-[4-oxo-2-((1S,3R)-3-propyl-cyclohexyl)-1,3,8-triaza-spiro[4.5]dec-1-ene-8-sulfonyl]-vinyl}-phenyl)-1-methyl-urea]"
12,29,"Cc1cc(N(C)C(N)=O)cc(C)c1/C=C/[S@TB4](=O)(=O)N1CCC2(CC1)N=C(CCCCCCCCCCCCCC(=O)O)NC2=O [Compound 1109, 14-(8-{(E)-2-[2,6-dimethyl-4-(1-methyl-ureido)-phenyl]-ethenesulfonyl}-4-oxo-1,3,8-triaza-spiro[4.5]dec-1-en-2-yl)-tetradecanoic acid]"
13,92,"[2H]C([2H])([2H])C1([2H])CCC(C2=NC3(CCN([S@TB18](=O)(=O)/C=C/c4c(C)cc(N(C)C(N)=O)cc4C)CC3)C(=O)N2)CC1 (centres unmarked) [Compound 1110, 1-(3,5-dimethyl-4-{(E)-2-[2-(4-[1,1,1-^2H3]methyl-[4-^2H1]cyclohexyl)-4-oxo-1,3,8-triaza-spiro[4.5]dec-1-ene-8-sulfonyl]-vinyl}-phenyl)-1-methyl-urea]"
14,79,"Cc1cc(N(C)C(N)=O)cc(C)c1/C=C/[S@TB3](=O)(=O)N1CCC2(CC1)N=C(c1ccc(F)c(OC(F)(F)F)c1)NC2=O [Compound 1111, 1-(4-{(E)-2-[2-(4-fluoro-3-trifluoromethoxy-phenyl)-4-oxo-1,3,8-triaza-spiro[4.5]dec-1-ene-8-sulfonyl]-vinyl}-3,5-dimethyl-phenyl)-1-methyl-urea]"
15,99,"Cc1cc(N(C)C(N)=O)cc(C)c1/C=C/[S@TB3](=O)(=O)N1CCC2(CC1)N=C(c1ccc(Cl)c(C(F)(F)F)c1)NC2=O [Compound 1113, 1-(4-{(E)-2-[2-(4-chloro-3-trifluoromethyl-phenyl)-4-oxo-1,3,8-triaza-spiro[4.5]dec-1-ene-8-sulfonyl]-vinyl}-3,5-dimethyl-phenyl)-1-methyl-urea]"
16,95,"CCCc1ccc(-c2cccc(C3=NC4(CCN(S(=O)(=O)/C=C/c5c(C)cc(N(C)C(N)=O)cc5C)CC4)C(=O)N3)c2)cc1 [Compound 1114, 1-(3,5-Dimethyl-4-{(E)-2-[4-oxo-2-(4′-propyl-biphenyl-3-yl)-1,3,8-triaza-spiro[4.5]dec-1-ene-8-sulfonyl]-vinyl}-phenyl)-1-methyl-urea]"
17,140,"CCOCCCCCCC1=NC2(CCN([S@TB18](=O)(=O)/C=C/c3c(C)cc(N(C)C(N)=O)cc3C)CC2)C(=O)N1 [Compound 1115, 1-(4-{(E)-2-[2-(6-ethoxy-hexyl)-4-oxo-1,3,8-triaza-spiro[4.5]dec-1-ene-8-sulfonyl]-vinyl}-3,5-dimethyl-phenyl)-1-methyl-urea]"
18,106,"Cc1cc(N(C)C(N)=O)cc(C)c1/C=C/[S@TB3](=O)(=O)N1CCC2(CC1)N=C(c1cccc(CCCCCC(F)(F)F)c1)NC2=O [Compound 1116, 1-[3,5-dimethyl-4-((E)-2-{4-oxo-2-[3-(6,6,6-trifluoro-hexyl)-phenyl]-1,3,8-triaza-spiro[4.5]dec-1-ene-8-sulfonyl}-vinyl)-phenyl]-1-methyl-urea]"
19,88,"Cc1cc(N(C)C(N)=O)cc(C)c1/C=C/[S@TB3](=O)(=O)N1CCC2(CC1)N=C(c1ccc(CCCCCC(F)(F)F)cc1)NC2=O [Compound 1117, 1-[3,5-dimethyl-4-((E)-2-{4-oxo-2-[4-(6,6,6-trifluoro-hexyl)-phenyl]-1,3,8-triaza-spiro[4.5]dec-1-ene-8-sulfonyl}-vinyl)-phenyl]-1-methyl-urea]"
20,79,"Cc1cc(N(C)C(N)=O)cc(C)c1/C=C/[S@TB4](=O)(=O)N1CCC2(CC1)N=C(CCCCCCCCCCCF)NC2=O [Compound 1118, 1-(4-{(E)-2-[2-(11-fluoro-undecyl)-4-oxo-1,3,8-triaza-spiro[4.5]dec-1-ene-8-sulfonyl]-vinyl}-3,5-dimethyl-phenyl)-1-methyl-urea]"
21,136,"C=CCCCCC1=NC2(CCN([S@TB17](=O)(=O)/C=C/c3c(C)cc(N(C)C(N)=O)cc3C)CC2)C(=O)N1 [Compound 1119, 1-{4-[(E)-2-(2-hex-5-enyl-4-oxo-1,3,8-triaza-spiro[4.5]dec-1-ene-8-sulfonyl)-vinyl]-3,5-dimethyl-phenyl}-1-methyl-urea]"
22,124,"Cc1cc(N(C)C(N)=O)cc(C)c1/C=C/[S@TB3](=O)(=O)N1CCC2(CC1)N=C(CCCC/C=C/c1ccccc1)NC2=O [Compound 1120, 1-(3,5-dimethyl-4-{(E)-2-[4-oxo-2-((E)-6-phenyl-hex-5-enyl)-1,3,8-triaza-spiro[4.5]dec-1-ene-8-sulfonyl]-vinyl}-phenyl)-1-methyl-urea]"
